In patent US20240327359A1, “3-ISOXAZOLIDINONE COMPOUND, PREPARATION METHOD, HERBICIDAL COMPOSITION AND APPLICATION THEREOF” (QINGDAO KINGAGROOT CHEMICAL COMPOUND CO., LTD., priority 2021, published 2024):

Legend:
Type in all cases: in vivo
weeds = experiment: Activity test of the compositions, soil sealing treatment
In short: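 Pre-emergence soil spray at 450 kg/ha, 0.3 MPa, applied 72 h after sowing pre-germinated seeds, 20 seeds per pot, 4 pots, 4 repeats; actives in acetone diluted with 0.10% Tween-80. Greenhouse, 20 to 30° C; surviving weed fresh weight measured 21 days after treatment.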

Galium aparine = experiment: Activity test of the compositions, post-emergence treatment by foliage spray; details: foliage (F), A 16 g a.i./mu
Experimental: (§1) The desired active ingredient B was purchased from a reagent company or synthesized by a known method. The technical materials were all dissolved in acetone and diluted with an aqueous solution containing 0.10% emulsifier Tween-80 which were to be used immediately after dilution.
(§2) Weeds were cultivated by a pot culture method. […] Weed seeds with plump and uniform grains were selected, soaked in lukewarm water at 25° C. for 6 hours, and germinated in a 28° C. biochemical incubator (in darkness). The weed seeds that had just germinated were evenly placed on the surface of the soil and then covered with 0.5-1 cm soil according to the sizes of seeds.
(§3) Each treatment was repeated 4 times. Four pots with 20 weed seeds per pot were treated each time.
(§4) The agents were used for only once in total in the experiment. In the stage of 1.5-2 leaves, the weeds were thinned out to maintain 10 weeds per pot. Ten weeds were kept in each treatment, then continued to be cultured until Echinochloa crus-galli var. zelayensis reached the stage of 2-3 leaves, Cirsium setosum reached the stage of 5-6 leaves, Galium aparine reached the stage of 3-4 whorl leaves, Amaranthus retroflexus reached the stage of 3-5 leaves, Echinochloa crusgalli, Lolium multiflorum and Digitaria sanguinalis reached the stage of 3 leaves with one leaf not fully expanding for further treatment.
(§5) The well-cultured test materials were evenly placed on a platform with an area of 0.5 m^2, and solution of agents was sprayed on the stems and leaves thereof by the 3WP-2000-type walking spray tower at a dosage of 450 kg/ha and at a spray pressure of 0.3 MPa. After all the solution was sprayed, the valve was closed. After 30 seconds, the door of the spray tower was opened, and the nutritional bowl was taken out. Then the valve was opened, and the spray tube was cleaned by spraying 50 ml of water. After the treatment, the weeds were routinely cultured in a greenhouse.
(§6) A method for investigating absolute numbers was employed. Whole seedlings of survival weeds were cut off with a blade along the soil surface, and the fresh weight of the weeds was weighed with an analytical balance. For dead weeds, the fresh weight thereof was zero.
(§7) The investigation was performed 21 days after the treatment for only once in total.

[1] = tested on: Echinochloa crusgalli, Scirpus juncoides, Bidens tripartita L., Sagittaria trifolia; rice (japonica rice); experiment: Transplanted rice safety evaluation and weed control effect evaluation in rice field; details: weeds 14 days, rice 21 days after treatment; observed with the naked eye
Experimental: Rice field soil was loaded into a 1/1,000,000 ha pot. The seeds of Echinochloa crusgalli, Scirpus juncoides, and Bidens tripartita L. were sowed and gently covered with soil, then placed in a greenhouse with water storage of 0.5-1 cm deep. The tuber of Sagittaria trifolia was planted in the next day or 2 days later. The water storage was kept at a depth of 3-4 cm thereafter. The weeds were treated by homogeneously dripping the WP or SC water diluents of the compounds of the present invention prepared according to the common preparation methods with a pipette to the specified effective amount when the Echinochloa crusgalli, Scirpus juncoides, and Bidens tripartita L. reached their 0.5 leaf stages and the Sagittaria trifolia reached the time point of the primary leaf stage.
In addition, the rice field soil that loaded into the 1/1,000,000 ha pot was leveled to keep water storage at a depth of 3-4 cm. […]
The development condition of Echinochloa crusgalli, Scirpus juncoides, Bidens tripartita L., and Sagittaria trifolia 14 days after the treatment of the compound of the invention and the development condition of rice 21 days after the treatment of the compound of the invention were respectively observed with the naked eye. The weed control effect was evaluated according to the above activity level criteria. […]

Cirsium setosum = experiment: Activity test of the compositions, post-emergence treatment by foliage spray; details: foliage (F), A 32 g a.i./mu
Experimental: as §1, §2
(§8) The culture was carried out in a controllable sunlight greenhouse at 20 to 30° C., in natural light, and with relative humidity of 57% to 72%.
as §3, §4, §5, §6, §7

[2] = tested on: Echinochloa crus-galli var. zelayensis; experiment: as above; details: Echinochloa crusgalli var. zelayensis; foliage (F); A 16 g a.i./mu
Experimental: as §1, §2, §8, §3, §4, §5, §6, §7

Digitaria sanguinalis = experiment: as above
Experimental: as §1, §2, §8, §3, §4, §5, §6, §7

Lolium multiflorum = experiment: as above; details: foliage (F), A 16 g a.i./mu
Experimental: as §1, §2, §8, §3, §4, §5, §6, §7

Echinochloa crusgalli = experiment: as above; details: foliage (F), A 16 g a.i./mu
Experimental: as §1, §2, §8, §3, §4, §5, §6, §7

Amaranthus retroflexus = experiment: as above; details: foliage (F)
Experimental: as §1, §2, §8, §3, §4, §5, §6, §7

[3] = tested on: spinach, radish, Chinese cabbage, sesame, rape, cucumber, watermelon, melon, pumpkin, cassava, soybean, kidney bean, cowpea, common bean, hyacinth bean, sponge …; experiment: Field test, crop safety; details: applied after planting and pre-emergence at 300 g a.i./ha

CC1(C)CON(Cc2ccc(Cl)cc2Br)C1=O [Compound 1]
Control effect (%) of A applied alone (A) (weeds; Alopecurus japonicus, soil (S), A 8 g a.i./mu): 39.4%
Control effect (%) of A applied alone (A) (weeds; Amaranthus retroflexus, soil (S), A 8 g a.i./mu): 37.3%
Control effect (%) of A applied alone (A) (weeds; Commelina communis, soil (S), A 8 g a.i./mu): 44.1%
Control effect (%) of A applied alone (A) (weeds; Cyperus difformis, soil (S), A 8 g a.i./mu): 34.5%
Control effect (%) of A applied alone (A) (weeds; Digitaria sanguinalis, soil (S), A 8 g a.i./mu): 40.3%
Control effect (%) of A applied alone (A) (weeds; Echinochloa crusgalli, soil (S), A 8 g a.i./mu): 50.7%
Control effect (%) of A applied alone (A) (weeds; Echinochloa crusgalli, soil treatment (S), A at 8 g a.i./mu, fresh weight inhibition 21 days after treatment): 50.7%
Control effect (%) of A applied alone (A) (weeds; Galium aparine, soil (S), A 8 g a.i./mu): 37.2%
Control effect (%) of A applied alone (A) (weeds; Lolium multiflorum, soil (S), A 8 g a.i./mu): 53.2%
Control effect (%) of A applied alone (A) (weeds; Potamogeton distinctus, soil (S), A 8 g a.i./mu): 35.9%
Control effect (%) of A applied alone (A) (weeds; Veronica didyma, soil (S), A 8 g a.i./mu): 48.9%
Control effect (%) of A applied alone (A) (Galium aparine): 55.4%
weed control effect and transplanted rice safety in rice field [1]: excellent activity and selectivity
Control effect (%) of A applied alone (A) (Cirsium setosum): 64.2%
Control effect (%) of A applied alone (A) [2]: 43.6%
Control effect (%) of A applied alone (A) (Digitaria sanguinalis; foliage (F), A 16 g a.i./mu): 42.3%
Control effect (%) of A applied alone (A) (Digitaria sanguinalis; foliage treatment (F), A at 16 g a.i./mu, fresh weight inhibition 21 days after treatment): 42.3%
Control effect (%) of A applied alone (A) (Lolium multiflorum): 56.7%
Control effect (%) of A applied alone (A) (Echinochloa crusgalli): 46.2%
Control effect (%) of A applied alone (A) (Amaranthus retroflexus; A 8 g a.i./mu): 36.7%
Control effect (%) of A applied alone (A) (Amaranthus retroflexus; A 16 g a.i./mu): 36.7%
crop safety in field test [3]: safe
